Data: paper PMC12127091, “Targeting Cancer With Bifunctional Peptides: Mechanism of Cell Entry and Inciting Cell Death” (Cancer Science, 2025)
Where a SMILES comes first, the peptide text is derived from it. [ ]: non-standard residue; d: D form.

What was measured:
[1] = test system: Caki‐2, SK‐BR‐3, A‐704 and CCD18‐Co; experiment: FITC‐peptide uptake by flow cytometry; format: cell-based; conditions: Caki‐2 and SK‐BR‐3, 5 μM FITC‐peptide, 1 h, Figure 2a
Protocol: 7 × 10^3–10^4 cells were seeded in a 96‐well plate. On the next day, the cells were incubated with 5 μM of FITC‐conjugated peptides. The cells were harvested at different time points and measured for their fluorescence intensity using BD FACSCanto II (Becton, Dickinson and Company, Franklin Lanes, NJ, USA). Dead cells were excluded by staining the cells with 7‐AAD dye (Biolegend, San Diego, CA, USA).

SK‐BR‐3 = experiment: Plasma membrane damage (LDH leakage, Annexin V binding); format: cell-based; conditions: SK‐BR‐3, 8 μM peptides, Figure 5a,b
Protocol: 7 × 10^3–10^4 cells were seeded in a 96‐well plate and left to recover overnight. The cells were treated with 8 μM of peptides and were harvested at two time points. The treated cells were harvested, and the supernatants were collected.
The cells were stained with FITC Annexin V and 7‐AAD (Biolegend) in Annexin V binding buffer (Becton, Dickinson and Company). The binding of Annexin V was checked using flow cytometry.
25 μL of the supernatant was used to check the presence of active lactate dehydrogenase using the CyQUANT LDH Cytotoxicity Assay Kit (Thermo Fisher Scientific) according to the manufacturer's instructions. The absorbance was measured at 490 and 680 nm.

[2] = attributed to high polarity; cited from earlier work
Text: (§1) Nonetheless, introducing this peptide to human sarcoma and melanoma cell lines at 1% of their inhibitory concentrations (IC50) was described to induce mitochondrial swelling p ...

human erythrocytes = conditions: cited from earlier work
Text: as §1

| SMILES | internalization (fluorescence intensity) of FITC‐peptides [1] | time after peptide addition at which major plasma membrane damage was detected (SK‐BR‐3) [h] | ability to cross the plasma membrane [2] | cytotoxicity towards human erythrocytes (human erythrocytes) |
| --- | --- | --- | --- | --- |
| CC(C)C[C@H](NC(=O)[C@H](Cc1c[nH]c2ccccc12)NC(=O)[C@@H]1CCCN1C(=O)[C@H](CO)NC(=O)[C@H](Cc1ccc(O)cc1)NC(=O)[C@@H](N)C(C)C)C(=O)N[C@H](C(=O)NCC(=O)NCC(=O)N[C@H](CCCCN)C(=O)N[C@H](CC(C)C)C(=O)N[C@H](C)C(=O)N[C@H](CCCCN)C(=O)N[C@H](CC(C)C)C(=O)N[C@H](C)C(=O)N[C@H](CCCCN)C(=O)N[C@H](CCCCN)C(=O)N[C@H](CC(C)C)C(=O)N[C@H](C)C(=O)N[C@H](CCCCN)C(=O)N[C@H](CC(C)C)C(=O)N[C@H](C)C(=O)N[C@H](CCCCN)C(=O)O)[C@@H](C)O [TP2‐D‐Tox] (H-VYSPWLTGG[dK][dL][dA][dK][dL][dA][dK][dK][dL][dA][dK][dL][dA][dK]-OH) | higher cell penetration | ≤ 3 |  |  |
| CC(C)C[C@H](N)C(=O)N[C@H](C(=O)N[C@H](C(=O)N[C@@H](CO)C(=O)N1CCC[C@H]1C(=O)N[C@@H](Cc1c[nH]c2ccccc12)C(=O)N[C@@H](Cc1ccc(O)cc1)C(=O)NCC(=O)NCC(=O)N[C@H](CCCCN)C(=O)N[C@H](CC(C)C)C(=O)N[C@H](C)C(=O)N[C@H](CCCCN)C(=O)N[C@H](CC(C)C)C(=O)N[C@H](C)C(=O)N[C@H](CCCCN)C(=O)N[C@H](CCCCN)C(=O)N[C@H](CC(C)C)C(=O)N[C@H](C)C(=O)N[C@H](CCCCN)C(=O)N[C@H](CC(C)C)C(=O)N[C@H](C)C(=O)N[C@H](CCCCN)C(=O)O)C(C)C)[C@@H](C)O [TP‐D‐Tox] (H-LTVSPWYGG[dK][dL][dA][dK][dL][dA][dK][dK][dL][dA][dK][dL][dA][dK]-OH) |  | ≤ 3 |  |  |
| CC(C)C[C@H](NC(=O)[C@H](CCCCN)NC(=O)[C@H](C)NC(=O)[C@H](CC(C)C)NC(=O)[C@H](CCCCN)NC(=O)[C@H](CCCCN)NC(=O)[C@H](C)NC(=O)[C@H](CC(C)C)NC(=O)[C@H](CCCCN)NC(=O)[C@H](C)NC(=O)[C@H](CC(C)C)NC(=O)[C@@H](N)CCCCN)C(=O)N[C@@H](C)C(=O)N[C@@H](CCCCN)C(=O)O [Tox] |  |  | hardly able to cross the plasma membrane | considerably lower cytotoxicity |
